Target: T1, GLP-1R (Homo sapiens, UniProt P43220)
T1 construct: host or cells: GLP-1R CRE-bla CHO-K1 cells
Assay: EC20 GLP-1(9-36) PAM cAMP assay: dose response of compound in the presence of fixed concentration of GLP-1(9-36)
Format: cell-based
Conditions: GLP-1R CRE-bla CHO-K1 cells, compound dose response with fixed concentration of GLP-1(9-36), read-out: EC20 GLP-1(9-36) PAM EC50
Summary of the method: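 GLP-1R CRE-bla CHO-K1 cells treated 30 min at 37 °C with 12-point compound dose response plus fixed EC20 GLP-1(9-36), with IBMX, in HBSS/HEPES/0.1% BSA pH 7.4. Total cAMP measured by luminescent detection against standard curve; EC50 and Emax from non-linear regression.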

T1 sequence (P43220 24-463): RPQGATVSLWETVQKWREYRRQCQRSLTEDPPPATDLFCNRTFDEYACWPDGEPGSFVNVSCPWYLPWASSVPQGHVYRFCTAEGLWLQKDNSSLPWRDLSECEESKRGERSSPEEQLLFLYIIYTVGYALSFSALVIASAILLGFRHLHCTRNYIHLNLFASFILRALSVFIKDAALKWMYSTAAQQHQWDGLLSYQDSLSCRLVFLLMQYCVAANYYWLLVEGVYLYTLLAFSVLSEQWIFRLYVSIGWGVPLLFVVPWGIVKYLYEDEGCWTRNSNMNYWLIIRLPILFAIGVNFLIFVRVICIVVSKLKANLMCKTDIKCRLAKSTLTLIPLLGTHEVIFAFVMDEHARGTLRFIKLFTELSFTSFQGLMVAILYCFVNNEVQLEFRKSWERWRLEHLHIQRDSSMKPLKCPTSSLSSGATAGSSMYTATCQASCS
T1 sequence (P01275 100-127 partner limits assumed): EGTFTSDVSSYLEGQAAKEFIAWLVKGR

Row | Compound | EC50
1 | CCC[C@H]1CC[C@H](C2CCN(c3cnc(-c4ccc(C[C@H](NC(=O)c5ccc(C(C)(C)C)s5)C(=O)NCC(=O)O)cc4)nc3)CC2)CC1 [Compound 1461] | < 800 nM
2 | CCC[C@H]1CC[C@H](C2CCN(c3cnc(-c4ccc(C[C@H](NC(=O)c5cnn(C(C)(C)C)c5)C(=O)N5CC(C(=O)O)C5)cc4)nc3)CC2)CC1 [Compound 1516] | < 800 nM
3 | CCC[C@H]1CC[C@H](C2CCN(c3cnc(-c4ccc(C[C@H](NC(=O)c5ccc(C(C)(C)C)s5)C(=O)N5CC[C@H](C(=O)O)C5)cc4)nc3)CC2)CC1 [Compound 1416] | < 800 nM
4 | CCC[C@H]1CC[C@H](C2CCN(c3cnc(-c4ccc(C[C@H](NC(=O)c5ccc(C(C)(C)C)s5)C(=O)N[C@H](CC(C)C)C(=O)O)cc4)nc3)CC2)CC1 [Compound 1462] | 800 to 2500 nM
5 | CCC[C@H]1CC[C@H](C2CCN(c3cnc(-c4ccc(CC(NC(=O)c5ccc(C(C)(C)C)s5)C(=O)NS(=O)(=O)C(F)(F)F)cc4)nc3)CC2)CC1 (stereo partly drawn) [Compound 1549] | < 800 nM
6 | CC(C)c1ccc(-c2ccc(-c3cnc(-c4ccc(C[C@H](NC(=O)c5ccc(C(C)(C)C)s5)C(=O)O)cc4)nc3)c(F)c2)cc1 [Compound 1359] | 800 to 2500 nM
7 | C[C@@H](NC(=O)[C@H](Cc1ccc(-c2ncc(-c3cnc(-c4ccccc4)nc3)cn2)cc1)NC(=O)c1ccc(C(C)(C)C)s1)C(=O)O [Compound 1311] | 2500 to 5000 nM
8 | CCC[C@H]1CC[C@H](C2CCN(c3cnc(-c4ccc(C[C@H](NC(=O)c5ccc(C(C)(C)C)s5)C(=O)NC5(C(=O)O)CCCC5)cc4)nc3)CC2)CC1 [Compound 1470] | < 800 nM
9 | CCC[C@H]1CC[C@H](C2CCN(c3cnc(-c4ccc(CC(NC(=O)c5ccc(C(C)(C)C)s5)C(=O)NS(=O)(=O)CC(F)(F)F)cc4)nc3)CC2)CC1 (stereo partly drawn) [Compound 1550] | < 800 nM

Same assay, conditions: dose response of compound in presence of fixed concentration of GLP-1(9-36), GLP-1R CRE-bla CHO-K1 cells, read-out: EC20 GLP-1(9-36) PAM EC50

Row | Compound | EC50
10 | Cc1cc(-c2cnc(-c3ccc(C[C@H](NC(=O)c4ccc(C(C)(C)C)s4)C(=O)N[C@H](C)C(=O)O)cc3)nc2)ccc1OC(C)C [Compound 1007] | 800 to 2500 nM
11 | CCCCCCCOc1ccc(-c2cnc(-c3ccc(C[C@H](NC(=O)c4ccc(C(C)(C)C)cc4)C(=O)NC(Cc4c[nH]c5ncccc45)C(=O)O)cc3)nc2)cc1 (stereo partly drawn) [Compound 584] | 800 to 2500 nM
12 | CC(C)(C)c1ccc(C(=O)N[C@@H](Cc2ccc(-c3ncc(-c4ccc(OCC5CC5)cc4)cn3)cc2)C(=O)N2CC(C(=O)O)C2)s1 [Compound 781] | 2500 to 5000 nM
13 | CCCCCCCOc1ccc(-c2cnc(-c3ccc(C[C@H](NC(=O)[C@H]4CC[C@H](C(C)(C)C)CC4)C(=O)N[C@H](C)C(=O)O)cc3)nc2)cc1 [Compound 833] | 5000 to 10000 nM
14 | CCCCCCCOc1ccc(-c2cnc(-c3ccc(C[C@H](NC(=O)c4ccc(C(C)(C)C)s4)C(=O)N[C@@H](CC(=O)O)C(=O)N(C)C)cc3)nc2)cc1 [Compound 527] | < 800 nM
15 | CC(C)(C)c1ccc(C(=O)N[C@@H](Cc2ccc(-c3ncc(-c4ccc(-c5ccc(C#N)cc5)cc4F)cn3)cc2)C(=O)N2CC(C(=O)O)C2)s1 [Compound 1201] | < 800 nM
16 | CCCCCCCOc1ccc(-c2cnc(-c3ccc(C[C@H](NC(=O)c4cc5c(s4)CCC(C)C5)C(=O)N[C@H](C)C(=O)O)cc3)nc2)cc1 (stereo partly drawn) [Compound 814] | 800 to 2500 nM
17 | CCCCCCCOc1ccc(-c2cnc(-c3ccc(C[C@H](NC(=O)c4ccc(C(C)(C)C)s4)C(=O)NC(C(=O)O)C(O)c4ccc(Cl)cc4)cc3)nc2)cc1 (stereo partly drawn) [Compound 901] | 800 to 2500 nM
18 | CCCCCCc1nnc(-c2cnc(-c3ccc(C[C@H](NC(=O)c4ccc(C(C)(C)C)cc4)C(=O)O)cc3)nc2)s1 [Compound 397, (S)-2-(4-(tert-butyl)benzamido)-3-(4-(5-(5-hexyl-1,3,4-thiadiazol-2-yl)pyrimidin-2-yl)phenyl)propanoic acid] | 2500 to 5000 nM
19 | CCCCCCCOc1ccc(-c2cnc(-c3ccc(C[C@H](NC(=O)c4ccc(C(C)(C)C)s4)C(=O)NC[C@H]4C[C@H](N)C4)cc3)nc2)cc1 [Compound 879] | 2500 to 5000 nM
20 | CCCCCCCOc1ccc(-c2cnc(-c3ccc(C[C@H](NC(=O)c4ccc(C(C)(C)C)s4)C(=O)NC(C(=O)O)C(O)c4ccccc4)cc3)nc2)cc1 (stereo partly drawn) [Compound 634] | < 800 nM
21 | CCCCCCCOc1ccc(-c2cnc(-c3ccc(C[C@H](NC(=O)c4ccc(C(C)(C)C)cc4)C(=O)NC(C(=O)O)c4ccc(C(F)(F)F)cc4)cc3)nc2)cc1 (stereo partly drawn) [Compound 453] | 800 to 2500 nM
22 | CCCCCCCOc1ccc(-c2cnc(-c3ccc(C[C@H](NC(=O)c4ccc(C(C)(C)C)s4)C(=O)N4CC[C@H](C(=O)O)C4)cc3)nc2)nc1 [Compound 1065] | < 800 nM
23 | CCCCCCCOc1ccc(-c2cnc(-c3ccc(C[C@H](NC(=O)c4ccc(C(C)(C)C)s4)C(=O)N[C@@H](CCN)C(=O)O)cc3)nc2)cc1 [Compound 410, (S)-4-amino-2-((S)-2-(5-(tert-butyl)thiophene-2-carboxamido)-3-(4-(5-(4-(heptyloxy)phenyl)pyrimidin-2-yl)phenyl)propanamido)butanoic acid] | 800 to 2500 nM
24 | CCOc1ccc2cc(-c3cnc(-c4ccc(C[C@H](NC(=O)c5ccc(C(C)(C)C)s5)C(=O)N[C@H](C)C(=O)O)cc4)nc3)ccc2c1 [Compound 992] | 2500 to 5000 nM
25 | CCCCCCCOc1ccc(-c2cnc(-c3ccc(C[C@H](NC(=O)c4ccc(C(C)(C)C)cc4)C(=O)NC(C(=O)O)c4cccc(C(F)(F)F)c4)cc3)nc2)cc1 (stereo partly drawn) [Compound 545] | < 800 nM
26 | CCCCCCCOc1ccc(-c2cnc(-c3ccc(C[C@H](NC(=O)c4ccc(C(C)(C)C)cc4)C(=O)N[C@@H](CC4CCCNC4)C(=O)O)cc3)nc2)cc1 (stereo partly drawn) [Compound 577] | 2500 to 5000 nM
27 | CCCCCCCOc1ccc(-c2cnc(-c3ccc(C[C@H](NC(=O)c4ccc(C(C)(C)C)s4)C(=O)O)cc3)c(C)c2)cc1 [Compound 946] | 2500 to 5000 nM
28 | CC(C)(C)c1ccc(C(=O)N[C@@H](Cc2ccc(-c3ncc(-c4ccc(OC5CCCCC5)cc4)cn3)cc2)C(=O)NC(C(=O)O)C(O)c2ccccc2)s1 (stereo partly drawn) [Compound 938] | 5000 to 10000 nM
29 | CCCCCCCOc1ccc(-c2cnc(-c3ccc(C[C@H](NC(=O)c4ccc(CCC)s4)C(=O)N4CCC[C@H]4C(=O)O)cc3)nc2)cc1 [Compound 1069] | 800 to 2500 nM
30 | CCCCCCCOc1ccc(-c2cnc(-c3ccc(C[C@H](NC(=O)c4ccc(CC(C)C)cc4)C(=O)N[C@H](C)C(=O)O)cc3)nc2)cc1 [Compound 823] | 800 to 2500 nM
31 | CCCCCCCOc1ccc(-c2cnc(-c3ccc(C[C@H](NC(=O)c4ccc(S(C)(=O)=O)cc4)C(=O)N[C@H](C)C(=O)O)cc3)nc2)cc1 [Compound 816] | 800 to 2500 nM
32 | CCCCCOc1ccc(-c2cnc(-c3ccc(C[C@H](NC(=O)c4ccc(C(C)(C)C)s4)C(=O)NC(C(=O)O)C(O)c4ccccc4)cc3)nc2)cc1 (stereo partly drawn) [Compound 925] | 2500 to 5000 nM
33 | CCCCCCCOc1ccc(-c2cnc(-c3ccc(C[C@H](NC(=O)c4ccc(C(C)(C)C)s4)C(=O)NC(CCS(C)(=O)=O)C(=O)O)cc3)nc2)cc1 (stereo partly drawn) [Compound 597] | < 800 nM
34 | CCCCCCCOc1ccc(-c2cnc(-c3ccc(C[C@H](NC(=O)c4ccc(C(C)(C)C)cc4)C(=O)N[C@@H](CC(=O)N(C)CCN)C(=O)O)cc3)nc2)cc1 [Compound 509] | 800 to 2500 nM
35 | CCCCCCCOc1ccc(-c2cnc(-c3ccc(C[C@H](NC(=O)c4ccc(C(C)(C)C)cc4)C(=O)NC(C(=O)O)C(C)c4ccccc4)cc3)nc2)cc1 (stereo partly drawn) [Compound 574] | 800 to 2500 nM
36 | CCCCCCCOc1ccc(-c2cnc(-c3ccc(C[C@H](NC(=O)c4ccc(C(C)(C)C)cc4)C(=O)N[C@H](C(=O)O)C(C)(C)C)cc3)nc2)cc1 [Compound 546] | 800 to 2500 nM

From US10034886B2, “GLP-1 receptor modulators” (Celgene International II SÀRL, priority 2014, dated 2018)
